Tests used:
[1] = test system: MES (electroshock) seizure in mice; assay: Anti-epilepsy activity, MES test in mouse; assay type: in vivo, ICR mice
Method: (§1) In the MES test (Ref., G. Villetti et al. Neuropharmacology 40(2001) 866-878), an electrical stimulus (mice: 50 mA, 60 Hz, 0.2 sec, and rats: 150 mA, 60 Hz, 0.2 sec in the test animal) supplied by an 11A Shocker (IITC Life Science Company) was delivered through corneal electrodes. All mice or rats assigned to any electroshock at peak time were treated with each test compound sample which was dissolved in 20% tween 80 prepared by saline solvent applied orally before the test. […] Three doses of the test sample were administered orally to 9-18 animals (3-6 mice per dose) for evaluating the respective doses at which 50% of the animals were protected from seizure (ED50). The ED50 value (median effective dose) was calculated by Litchfield and Wicoxon log-probit method which is a dose-response relationship. Experimental animals, male ICR mice and male SD rats, were purchased from OrientBio, Samtako, or Nara Biotech, Korea, and housed in cages (4-5 mice or 3 rats per cage) for 4-5 days. The range of mice body weight was between 19 and 25 grams and range of rats body weight was between 100 and 130 grams.

[2] = test system: CFA-induced pain model in rats; assay: Antiallodynic activity on Complete Freund's Adjuvant (CFA)-induced inflammatory pain model; assay type: in vivo, Sprague-Dawley rats; conditions: 50 mg/kg intraperitoneally, von Frey threshold relative to sham, 0.5 hr after administration; for response vs control in vivo at 50 mg/kg: Rattus norvegicus, ip, read-out: Efficacy of 50 mg/kg(%)
Method: Male, Sprague-Dawley rats (210-250 g, Nara Bio, Korea) were habituated for 1 week before surgery and allowed free access to food and water throughout the experimentation. Room temperature and humidity were maintained at 24±2 and 50±10%, respectively.
CFA-induced inflammatory pain was induced by the procedure of Nagakura et al. (2003) and Gregory P. et al. (2010) with minor modifications. CFA (sigma, USA) was injected in the right plantar with a 100 ul volume under gaseous anesthesia with isoflurane. Sham controls were injected with 100 ul of saline, and preparation of the vehicle controls were identical to the group treated with compound, except for administration of vehicles without indentical to the vihecle control group.
Tactile sensitivity (Mechanical allodynia) was evaluated using von Frey monofilaments before and after treatment, and animals were include in the study only if the withdrawal threshold value was less than 4 g. One week after CFA injection, CFA-infused animals, sham-operated animal, and vehicle-operated animals were tested for tactile sensitivity with von Frey monofilaments, with 3 trials for each animal. All Animals were placed in a stainless steel mashe chamber and habituated for 30 min in the test cage. The tactile sensitivity for ipsilateral hind paw was measured using the up-and-down method (Dixon, 1980) with seven von Frey monofilaments (0.4, 1, 2, 4, 6, 8, and 15 g) to 3 trials. The tactile sensitivity test was followed by Dixon's method (Dixon, 1980). The 50% paw withdrawal threshold for each paw was calculated using the following formula: [Xth]log=[vFr]log+ky where [vFr] is the force of the last von Frey used, k=0.2249 which is the average interval (in log units) between the von Frey monofilaments, and y is a value that depends upon the pattern of withdrawal responses (Dixon, 1980).
Antiallodynic effect of compounds was evaluated at the dose of 50 mg/kg (n=4-6), intraperitoneally administrated in a volume of 5 ul/g bw in a vehicle of 30% (v/v) PEG or 20% (v/v) Tween 80. The test was performed peak time of efficacy (0.5 hr) after compound administration.
The relative values compared to the sham (% control) were calculated and shown in Table 5, which show an antiallodynic effect of Compound 1 on CFA-induced pain model in rats.

[3] = test system: MES (electroshock) seizure in rats; assay: Anti-epilepsy activity, MES test in rats; assay type: in vivo, SD rats; conditions: Rattus norvegicus, po
Method: as §1

[4] = test system: Lithium-pilocarpine induced seizure in rats; assay: Lithium-pilocarpine induced epilepsy test (LI-PILO), prevention test; assay type: in vivo, Sprague-Dawley rats; conditions: i.p., dose 100 mg/kg
Method: Male Sprague-Dawley rats (purchased from Orient Bio Inc. Korea) of body weight 175 grams were used for these studies and 3 rats per cage were housed for 4-5 days. On the day prior to SE, rats received 127 mg/kg lithium chloride (Sigma, St. Louis, Mo., U.S.A.) intraperitoneally (i.p.). Approximately 18-20 h following this treatment, rats were given an i.p. injection of the concentration capable of inducing 97% intermittent convulsions pilocarpine(Sigma, 30-43 mg/kg). An i.p. injection of 2 mg/kg methyl-scopolamine (Sigma) was administered 30 min prior to pilocarpine to block the effects of the muscarinic agonist on peripheral cholinergic receptors. Test drugs were dissolved in 20% tween80 (Sigma).
The drugs were administered intraperitoneally (i.p.) in a volume of 2 μl/g body weight. Pharmacological effects of all of the test materials were evaluated to compare test groups (n=6) with a control group (n=6). Control group was administered vehicle only. The efficacy was measured 0.5, 1, 2, or 4 hours after the administration of the test material. The time point that the most animals were protected was defined as peak time and the ED50 was determined at peak time. The animals were then transferred to observation cages and observed continuously for 90 min Seizure was elicited in approximately 95% of the control group. Protection was defined as complete absence of seizure grade 3-5 (Racine scale; Racine, 1972) over the 90-min observation period. The effective dose of the compound necessary to protect 50% of the animals against seizures compared to controls (i.e., ED50) was determined by a curve fitting program (Excel 2007, Microsoft).

[5] = po, read-out: MES test (po) efficacy %

Compound | responders at 100 mg/kg [1, 5] [%] | response vs control in vivo at 50 mg/kg [2] [%] | also measured
NC(=O)O[C@H]1c2ccccc2CC[C@H]1O [Example 16, (1S, 2R)-2-hydroxy-1,2,3,4-tetrahydronaphthalen-1-yl carbamate] | 50 | – | –
NC(=O)O[C@H]1c2ccc(Cl)cc2CC[C@H]1O [Example 23, (1S, 2R)-6-chloro-2-hydroxy-1,2,3,4-tetrahydronaphthalen-1-yl carbamate] | 33.3 | – | –
NC(=O)O[C@H]1c2c(I)cccc2CC[C@H]1O [Example 27, (1S, 2R)-2-hydroxy-8-iodo-1,2,3,4-tetrahydronaphthalen-1-yl carbamate] | – | 37.8 | responders at 200 mg/kg ([1]; po, dose 200 mg/kg, read-out: MES test (po) efficacy %): 100%
NC(=O)O[C@H]1CCc2ccc(Cl)cc2[C@H]1O [Example 7] | – | 28.6 | responders at 150 mg/kg ([1]; po, dose 150 mg/kg, read-out: MES test (po) efficacy %): 100%
NC(=O)O[C@H]1c2c(F)cccc2C[C@H]1O [Example 69, (1S, 2R)-7-fluoro-2-hydroxy-2,3-dihydro-1H-inden-1-yl carbamate] | 33.3 | – | –
NC(=O)O[C@@H]1CCc2ccccc2[C@@H]1OC(N)=O [Example 38, (1S, 2R)-1,2,3,4-tetrahydronaphthalen-1,2-diyl dicarbamate] | 25 | – | –
NC(=O)O[C@@H]1CCc2cc(Cl)ccc2[C@@H]1O [Example 8, (1S, 2R)-6-chloro-1-hydroxy-1,2,3,4-tetrahydronaphthalen-2-yl carbamate] | 100 | – | –
NC(=O)O[C@@H]1CCc2cccc(Cl)c2[C@H]1O [Example 4, (1R, 2R)-8-chloro-1-hydroxy-1,2,3,4-tetrahydronaphthalen-2-yl carbamate] | – | – | ED50 ([1]; po): 80.6 mg/kg
NC(=O)O[C@H]1CCc2cccc(I)c2[C@H]1O [Example 13, (1R, 2S)-1-hydroxy-8-iodo-1,2,3,4-tetrahydronaphthalen-2-yl carbamate] | 33.3 | 43.1 | –
COCO[C@@H]1c2c(Cl)cccc2C[C@@H]1OC(N)=O [Example 72, (1R, 2S)-7-chloro-1-(methoxymethoxy)-2,3-dihydro-1H-inden-2-yl carbamate] | – | 21.4 | –
NC(=O)O[C@@H]1c2cc(Cl)ccc2CC[C@@H]1O [Example 22, (1R, 2S)-7-chloro-2-hydroxy-1,2,3,4-tetrahydronaphthalen-1-yl carbamate] | 100 | 35.7 | –
NC(=O)O[C@H]1c2cccc(Cl)c2C[C@H]1O [Example 62, (1S, 2R)-4-chloro-2-hydroxy-2,3-dihydro-1H-inden-1-yl carbamate] | – | – | ED50 ([1]; po): 53.1 mg/kg; ED50 [3]: 24.5 mg/kg
NC(=O)O[C@@H]1CCc2cccc(I)c2[C@@H]1O [Example 12, (1S, 2R)-1-hydroxy-8-iodo-1,2,3,4-tetrahydronaphthalen-2-yl carbamate] | 100 | 38.5 | –
8-chloro-2-hydroxy-1,2,3,4-tetrahydronaphthalen-1-yl carbamate (mixture of SR & RS) [Example 20] | – | – | MES test (po) ED50 [1]: 31.4 mg/kg; Efficacy of 50 mg/kg(%) [2]: 40.2%
NC(=O)O[C@H]1CCc2cccc(I)c2[C@H]1OC(N)=O [Example 37, (1R, 2S)-8-iodo-1,2,3,4-tetrahydronaphthalen-1,2-diyl dicarbamate] | – | – | responders at 300 mg/kg [1, 5]: 33.3%
NC(=O)O[C@H]1Cc2cccc(F)c2[C@H]1O [Example 56, (1R, 2S)-7-fluoro-1-hydroxy-2,3-dihydro-1H-inden-2-yl carbamate] | – | 43.2 | ED50 ([1]; po): 45.6 mg/kg
NC(=O)O[C@@H]1c2c(I)cccc2CC[C@@H]1O [Example 28, (1R, 2S)-2-hydroxy-8-iodo-1,2,3,4-tetrahydronaphthalen-1-yl carbamate] | 100 | 42.1 | –
NC(=O)O[C@H]1Cc2cccc(Cl)c2[C@H]1OC(N)=O [Example 78, (1R, 2S)-7-chloro-2,3-dihydro-1H-inden-1,2-diyl dicarbamate] | 33.3 | 62.3 | –
NC(=O)O[C@H]1CCc2cccc(Cl)c2[C@H]1OC(N)=O [Example 30, (1R, 2S)-8-chloro-1,2,3,4-tetrahydronaphthalen-1,2-diyl dicarbamate] | – | 28.4 | responders at 400 mg/kg ([1]; po, dose 400 mg/kg, read-out: MES test (po) efficacy %): 33.3%
NC(=O)O[C@@H]1CCc2cccc(Cl)c2[C@@H]1OC(N)=O [Example 29, (1S, 2R)-8-chloro-1,2,3,4-tetrahydronaphthalen-1,2-diyldicarbamate] | 66.6 | 30.3 | –
NC(=O)O[C@@H]1CCc2cccc(I)c2[C@@H]1OC(N)=O [Example 36, (1S, 2R)-8-iodo-1,2,3,4-tetrahydronaphthalen-1,2-diyl dicarbamate] | – | 72.2 | responders at 300 mg/kg [1, 5]: 33.3%
NC(=O)O[C@@H]1CCc2ccccc2[C@@H]1O [Example 14, (1S, 2R)-1-hydroxy-1,2,3,4-tetrahydronaphthalen-2-yl carbamate] | 100 | – | –
NC(=O)O[C@@H]1Cc2c(Cl)cccc2[C@@H]1O [Example 68, (1S, 2R)-4-chloro-1-hydroxy-2,3-dihydro-1H-inden-2-yl carbamate] | – | – | ED50 ([1]; po): 61.2 mg/kg; ED50 [3]: 14.4 mg/kg
NC(=O)O[C@H]1CCc2cc(Cl)ccc2[C@H]1O [Example 9, (1R, 2S)-6-chloro-1-hydroxy-1,2,3,4-tetrahydronaphthalen-2-yl carbamate] | – | 27.5 | –
NC(=O)O[C@H]1c2cc(Cl)ccc2CC[C@H]1O [Example 21, (1S, 2R)-7-chloro-2-hydroxy-1,2,3,4-tetrahydronaphthalen-1-yl carbamate] | 33.3 | 28.9 | –
COCO[C@H]1c2c(Cl)cccc2CC[C@H]1OC(N)=O [Example 40, (1S, 2R)-8-chloro-1-(methoxymethoxy)-1,2,3,4-tetrahydronaphthalen-2-yl carbamate] | 100 | – | Lithium pilocarpine model (pre) efficacy % [4]: 66.6%
COCO[C@H]1Cc2cccc(Cl)c2[C@H]1OC(N)=O [Example 76, (1R, 2S)-7-chloro-2-(methoxymethoxy)-2,3-dihydro-1H-inden-1-yl carbamate] | 100 | 59.2 | –
NC(=O)O[C@@H]1CCc2ccc(Cl)cc2[C@@H]1O [Example 6, (1S, 2R)-7-chloro-1-hydroxy-1,2,3,4-tetrahydronaphthalen-2-yl carbamate] | 33.3 | 26.8 | –
